Each block holds one compound with its values, some of them ahead of it.
Assays:
[1] = cited from earlier work
brain Aβ42 = test system: brain Aβ42; parameters: method as in PMID 22429469; settings: 100 mg/kg oral dose; cited from earlier work
[2] = parameters: method as in PMID 22468891; settings: Phase III clinical trials; cited from earlier work
CSF Aβ42 [3] = test system: CSF Aβ42; parameters: method as in PMID 22072214; settings: dog, single dose of 80 mg/kg; cited from earlier work
plasma Aβ42 = test system: plasma Aβ42; parameters: method as in earlier work; settings: human, 400 mg dose; cited from earlier work
[4] = parameters: method as in earlier work; settings: high-dose group, rats; cited from earlier work
[5] = Free fraction in plasma (plasma protein binding); type: in vitro ADME
[6] = parameters: method as in PMID 22072214; settings: repeated dosing in rat and dog; cited from earlier work
[7] = Free fraction in brain (brain tissue binding, Fub); type: in vitro ADME
plaque load = test system: plaque load; parameters: method as in PMID 21232036; settings: chronic treatment of transgenic mice, exposure below concentrations required for Aβ42 reduction after a single dose; cited from earlier work
[8] = Limited tolerance study in rats; type: in vivo; settings: two-week daily dose of 200 mg/kg
γ-secretase = target: T1, γ-secretase (Homo sapiens, UniProt P49768); experiment: Cellular Aβ42 lowering in SKNBE2 human neuroblastoma cells carrying hAPP 695 wild-type; type: cell-based; settings: cellular assay, determined internally
T1 construct: screening was carried out using SKNBE2 human neuroblastoma cells carrying the hAPP 695 wild-type; endogenous in cells; host or cells: SKNBE2 human neuroblastoma cells carrying hAPP 695 wild-type

CSF Aβ42 [9] = experiment: Dog model combining PK/PD data with early observations of liver toxicity; type: in vivo; settings: 20 mg/kg p.o.
Method: (§1) For the cellular in vitro activity of our own compounds, screening was carried out using SKNBE2 human neuroblastoma cells carrying the hAPP 695 wild-type as described in [15]. For a description of the mouse in vivo experiments, see references; for details on the dog in vivo experiments, see [17].
(§2) Both compounds have been tested in advanced animal models, including repeated dosing in rat and dog. […] Based on these findings, further development was halted. Since then, the dog model combining PK/PD data with early observations of liver toxicity is routinely used in our discovery program to triage compounds [17]. Both JNJ-40418677 and JNJ-42601572 contain a considerable number of conjugated aromatic rings and are characterized by high lipophilicity and molecular weight. In recent years a number of publications have appeared relating such properties with a low probability of success in clinical development. Catchy phrases like “molecular obesity” and “escape from flatland” have been used to describe the issues associated with high molecular weight and number of (hetero) aromatic rings in molecules. Based on analysis of compound properties and their attrition or success in (pre)clinical development, guidelines have been formulated and proposed which can be applied during optimization efforts in medicinal chemistry programs to strive towards more drug-like compounds. The concept of ligand efficiency (LE) is now routinely applied in the drug discovery process. It is defined as the binding energy towards a biological target per (heavy = nonhydrogen) atom in a compound. Since most assays are not directly measuring binding energy, IC50 values are often used to make a relative comparison of the LE of compounds. By working towards a high LE, molecular weight can be kept in control while optimizing pharmacological activity. […]

[10] = as above; type: in vivo
Method: as §1, §2

SMILES: C[C@@H](C(=O)O)c1ccc(-c2ccccc2)c(F)c1 [Compound 2, tarenflurbil]
- tolerability in clinical trials ([1]; high dosage): well tolerated
- phase III clinical trial outcome ([1]; phase III): negative results

SMILES: COc1nc(C(=O)N[C@H]2COc3ccc(Cl)c(F)c32)ccc1-n1cnc(C)c1 [Compound 15]
- lowering of Aβ42 levels in Guinea pig brain (brain Aβ42): 36%

SMILES: CC(C)[C@H](O)C(=O)N[C@@H](C)C(=O)N[C@@H]1C(=O)N(C)CCc2ccccc21 [Compound 1, semagacestat]
- effect on cognition [2]: statistically significant decline in cognition
- risk of skin cancer [2]: increased risk of skin cancer

SMILES: COc1cc(/C=C2\CCCN([C@@H](C)c3ccc(F)cc3)C2=O)ccc1-n1cnc(C)c1 [Compound 3]
- gene-expression profile in liver tissue (CSF Aβ42 [3]): large changes in gene-expression profile
- liver parameters (CSF Aβ42 [3]): liver parameter changes
- maximum reduction of plasma Aβ42 levels (plasma Aβ42): ~ 50%
- lenticular opacity [4]: lenticular opacity was observed

- fraction unbound [5]: < 0.001
- fraction unbound [7]: < 0.001
SMILES: CC(C)C[C@H](C(=O)O)c1cc(-c2ccc(C(F)(F)F)cc2)cc(-c2ccc(C(F)(F)F)cc2)c1 [Compound 4]
- liver toxicity signs (bilirubin and ALT/AST increases) [6]: early signs of liver toxicity were noted
- effect on plaque load (plaque load): preventive effect on plaque load

SMILES: COc1nc(-c2nc3n(n2)CCO[C@H]3c2ccccc2OC(F)(F)F)ccc1-n1cnc(C)c1 [Compound 16]
- signs of liver toxicity [8]: did not lead to overt signs of liver toxicity
- IC50 (γ-secretase): 56 nM
- bilirubin or ALT levels (CSF Aβ42 [9]): no increases in bilirubin or ALT levels were observed
- concentration at 4 h ([10]; CSF, 20 mg/kg oral, 4 h, read-out: CSF compound concentration): 0.524 ± 0.062 µM
- Cmax ([10]; plasma, po, 20 mg/kg): 24 ± 3 µM
- fraction unbound [7]: 0.039
